{
  "source": "patent US20020107282A1",
  "about": "“Cosmetic composition containing an aminophenol derivative and an isoflavonoid” (L'OREAL, priority 2000, published 2002)",
  "test_system": "fungal tyrosinase",
  "assay": "in vitro inhibition of the activity of fungal tyrosinase (OD at 475 nm)",
  "assay_type": "biochemical",
  "conditions": "active agent alone in ethanol, C1 = 1.25 × 10^−4 M",
  "method": "This test consists in measuring the absorbence (optical density OD) at 475 nm as a function of time for each of the depigmenting active agents tested. These agents are dissolved (at various concentrations) in a suitable solvent in the presence of a phosphate buffer, 1 ml of L-tyrosine at 2.0×10^−3 M in a phosphate buffer, 0.1 ml of L-Dopa at 1.0×10^−4 M in a phosphate buffer and 50 μl of a fungal tyrosinase solution at 1 g/l in a phosphate buffer, compared with a control consisting of the solvent used at the same concentration in the phosphate buffer. A percentage of inhibition is then determined by the following equation: [formula] […] These two active agents in the concentrations C1 and C2 found above are then mixed together. The theoretical percentage of inhibition of the mixture (or theoretical IC), corresponding to the sum of the percentages of inhibition observed for the individual compounds, is then calculated, and the percentage of inhibition obtained (or measured IC) is measured under the same experimental conditions as for the compounds tested separately.",
  "data": [
    {"smiles": "CCOC(=O)Nc1ccc(O)cc1", "note": "[N-ethoxy-carbonyl-4-aminophenol, N-ethyloxycarbonyl-4-aminophenol]", "values": [
      {"measurement": "IC obtained (%)", "setting": "inhibition actually obtained", "result": 23.5, "unit": "%"},
      {"measurement": "Theoretical IC (%)", "setting": "inhibition value that should be observed (close to 25%)", "result": 24.8, "unit": "%"}
    ]}
  ]
}
